Measured values reported in paper PMC9212912 (Structure (London, England : 1993), 2022).

Experiments:
BRD4 ET domain = BRD4 ET domain (Homo sapiens, UniProt O60885); assay type: binding; conditions: 20 mM Tris pH 7.0, 100 mM NaCl, 3 mM DTT, 10% D2O
Calu-3 cells = conditions: 0.01 µM
human HAT complex SAGA = test: In vitro acetyltransferase assay; assay type: biochemical
[1] = test system: human HAT complex NuA4/TIP60; test: In vitro acetyltransferase assay; assay type: biochemical
[2] = test system: native human MYST-family HAT complexes purified via MEAF6 (MYST); test: In vitro acetyltransferase assay, 3H-acetyl incorporation; assay type: biochemical; conditions: 0.5 μg peptide, 3H Ac-CoA, 30 minutes at 30 °C, liquid scintillation
[3] = test system: native human MYST-family HAT complex purified via BRPF2 (HBO1); test: as above; assay type: biochemical; conditions: 0.5 μg peptide, 3H Ac-CoA, 30 minutes at 30 °C, liquid scintillation

## SARS-CoV-2 E^57−69: peptide, aa 57–69 of SARS-CoV-2 E (YVYSRVKNLNSSR)
BRD4 ET domain
  Chemical shift perturbations in BRD4 ET upon peptide addition: small CSPs

## SARS-CoV-2 E^53−72: longer non-acetylated peptide, aa 53–72 of SARS-CoV-2 E (KPSFYVYSRVKNLNSSRVPD)
BRD4 ET domain
  Chemical shift perturbations in BRD4 ET upon peptide addition: did not alter the pattern of CSPs

## Cc1sc2c(c1C)C(c1ccc(Cl)cc1)=N[C@@H](CC(=O)Nc1ccc(O)cc1)c1nnc(C)n1-2 [OTX015]
Calu-3 cells
  Calu-3 cell viability: 98%

## SARS-CoV-2 E^48−72: peptide, aa 48–72 of SARS-CoV-2 E, acetyltransferase substrate (NVSLVKPSFYVYSRVKNLNSSRVPD; UniProt P0DTC4 48-72, looked up, fragment)
Human HAT complex SAGA
  Acetylation of the peptide by SAGA: undetectable
[1]
  Acetylation of the peptide by NuA4/TIP60: undetectable
[2]
  Acetylation of the peptide by MYST (MEAF6) complexes: able to some extent acetylate
[3]
  Acetylation of the peptide by HBO1 (BRPF2) complex: able to some extent acetylate
